“And” between values parts separate entries of the source, which are not always exact repeats. Equal entries are not always repeated. “Also recorded” adds a separate entry of the source.
Experiments:
Toledo cells = test: Growth inhibition of PIKfyve-mediated tumor cells by Cell Titer Glo method, Toledo; type: cell-based; conditions: Homo sapiens, 120 h, CellTiter-Glo, 5 days of culture, read-out: Inhibition rate % (Toledo)
Method: (§1) IV. Determination of Growth Inhibition Rates of Compounds Against PIKfyve-Mediated Tumor Cells by Cell Titer Glo Method
(§2) 1. Cell plating: cells in logarithmic growth phase were counted and inoculated in 384-well plate.
(§3) 3. […] RLU was measured on PHERAstar Plus.

PIKfyve protein = PIKfyve protein (Homo sapiens (Human), UniProt Q9Y2I7); test: Dissociation equilibrium constant (Kd) of compound and PIKfyve protein, DiscoverX KINOMEscan; type: binding; conditions: eleven 3-fold dilutions, curve fitting
PIKfyve protein, sequence (Q9Y2I7 whole entry): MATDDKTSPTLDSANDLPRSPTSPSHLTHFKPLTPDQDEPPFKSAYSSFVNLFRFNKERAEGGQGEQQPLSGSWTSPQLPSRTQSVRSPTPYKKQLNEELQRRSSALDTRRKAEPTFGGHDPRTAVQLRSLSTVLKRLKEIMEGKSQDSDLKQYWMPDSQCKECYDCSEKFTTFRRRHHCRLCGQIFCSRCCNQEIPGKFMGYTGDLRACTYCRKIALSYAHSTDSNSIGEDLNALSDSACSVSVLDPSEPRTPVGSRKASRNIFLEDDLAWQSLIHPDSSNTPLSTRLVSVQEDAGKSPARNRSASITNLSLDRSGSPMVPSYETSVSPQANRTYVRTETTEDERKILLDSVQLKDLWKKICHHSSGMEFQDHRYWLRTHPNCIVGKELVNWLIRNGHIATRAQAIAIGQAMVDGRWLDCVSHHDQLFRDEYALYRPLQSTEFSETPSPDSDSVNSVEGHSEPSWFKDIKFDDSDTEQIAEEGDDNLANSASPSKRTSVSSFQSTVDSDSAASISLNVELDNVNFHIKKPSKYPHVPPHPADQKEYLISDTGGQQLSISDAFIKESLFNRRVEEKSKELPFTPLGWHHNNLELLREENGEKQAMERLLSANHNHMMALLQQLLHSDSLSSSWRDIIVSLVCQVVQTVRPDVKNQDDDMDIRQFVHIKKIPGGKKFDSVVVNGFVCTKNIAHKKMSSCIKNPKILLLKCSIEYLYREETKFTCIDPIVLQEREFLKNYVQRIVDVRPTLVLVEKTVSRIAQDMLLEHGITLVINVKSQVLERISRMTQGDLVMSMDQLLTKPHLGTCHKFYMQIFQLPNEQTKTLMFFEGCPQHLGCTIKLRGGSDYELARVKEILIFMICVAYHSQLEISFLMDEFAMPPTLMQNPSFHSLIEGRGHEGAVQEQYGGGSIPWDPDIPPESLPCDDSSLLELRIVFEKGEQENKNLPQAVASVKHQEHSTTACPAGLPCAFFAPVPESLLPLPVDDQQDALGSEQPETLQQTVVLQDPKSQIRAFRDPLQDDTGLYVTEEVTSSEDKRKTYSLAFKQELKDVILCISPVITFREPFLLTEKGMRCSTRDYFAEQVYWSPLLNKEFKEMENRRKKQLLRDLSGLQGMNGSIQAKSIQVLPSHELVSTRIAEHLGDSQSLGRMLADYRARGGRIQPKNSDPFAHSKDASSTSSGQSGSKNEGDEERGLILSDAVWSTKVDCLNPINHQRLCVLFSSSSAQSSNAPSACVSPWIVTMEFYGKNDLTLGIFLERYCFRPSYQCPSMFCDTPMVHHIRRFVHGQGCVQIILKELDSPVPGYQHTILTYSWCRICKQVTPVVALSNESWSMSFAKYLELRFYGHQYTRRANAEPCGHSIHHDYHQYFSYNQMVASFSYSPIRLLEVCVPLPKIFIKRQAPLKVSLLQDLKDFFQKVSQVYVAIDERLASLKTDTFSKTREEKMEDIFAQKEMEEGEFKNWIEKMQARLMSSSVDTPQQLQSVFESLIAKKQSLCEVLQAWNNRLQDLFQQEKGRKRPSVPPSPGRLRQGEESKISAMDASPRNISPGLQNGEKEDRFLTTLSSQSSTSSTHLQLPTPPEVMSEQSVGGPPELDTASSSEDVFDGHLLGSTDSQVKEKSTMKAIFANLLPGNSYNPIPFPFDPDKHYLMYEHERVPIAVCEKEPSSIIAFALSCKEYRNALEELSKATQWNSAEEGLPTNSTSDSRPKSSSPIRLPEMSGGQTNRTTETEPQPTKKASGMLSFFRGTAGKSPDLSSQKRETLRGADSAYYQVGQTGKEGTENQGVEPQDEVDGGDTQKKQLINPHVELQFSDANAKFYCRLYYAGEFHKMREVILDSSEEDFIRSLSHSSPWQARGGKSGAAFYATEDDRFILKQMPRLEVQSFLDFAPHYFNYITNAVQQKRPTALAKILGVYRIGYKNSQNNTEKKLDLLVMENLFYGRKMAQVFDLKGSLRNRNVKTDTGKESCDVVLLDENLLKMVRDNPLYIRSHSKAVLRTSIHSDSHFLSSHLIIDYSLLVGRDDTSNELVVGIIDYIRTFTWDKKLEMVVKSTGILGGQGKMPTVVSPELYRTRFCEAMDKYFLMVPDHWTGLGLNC
Method: II. Determination of Dissociation Equilibrium Constant (Kd Value) of Compound and PIKfyve Protein
The Kd value was determined by DiscoverX's KINOMEscan™ technology according to the following steps:
1. Preparation of magnetic beads: biotin-labeled small molecule ligand and avidin-coated magnetic beads were allowed to interact at room temperature for 30 minutes, and then added with excess biotin, followed by washing with a blocking solution (1% BSA, 0.05% Tween 20, 1 mM DTT) to remove unbound ligand.
2. Binding reaction: in a 384 plate, 0.02 mL system, DNA-labeled protein, small molecule ligand-bound magnetic beads, and different concentrations of compound to be tested were mixed in a reaction solution (0.17×PBS, 0.05% Tween 20, 6 mM DTT) at room temperature with shaking for 1 hr, to which was added an eluant (1×PBS, 0.05% Tween 20) for elution. Magnetic beads were resuspended by an eluant (1×PBS, 0.05% Tween 20, 0.5 μM non-biotin-labeled small molecule ligand), and shaken at room temperature for 30 min before separating out the eluant.
3. Determination of Kd value: the content of protein in the above eluate was determined by qPCR. Eleven 3-fold dilution concentrations were determined for the compound to be tested, with 3 DMSO controls for each concentration, and the Kd value was obtained by curve fitting.

ST486 cells = test: Growth inhibition of PIKfyve-mediated tumor cells by Cell Titer Glo method, ST486; type: cell-based; conditions: Homo sapiens, 120 h, CellTiter-Glo, 5 days of culture, read-out: Inhibition rate % (ST486)
Method: as §1, §2, §3

MDA-MB-231 cells = test: Vacuolation of MDA-MB-231 cells caused by inhibition of compounds on PIKfyve (microscopy); type: cell-based; conditions: for degree of vacuolation, 1 μM, 24 h / degree of vacuolation, 1 μM, 48 h / degree of vacuolation, 10 μM, 24 h / degree of vacuolation, 10 μM, 48 h: MDA-MB-231 cells; on degree of vacuolation, 1 μM, 24 h: key: '+' represents the degree of vacuolation; ++: more '+' indicates more obvious vacuolation; +++: more '+' indicates more obvious vacuolation; ++++: more '+' indicates more obvious vacuolation; '−' represents no vacuolation; on degree of vacuolation, 1 μM, 48 h: key: '+' represents the degree of vacuolation; ++: more '+' indicates more obvious vacuolation; +++: more '+' indicates more obvious vacuolation; ++++: more '+' indicates more obvious vacuolation; '−' represents no vacuolation; on degree of vacuolation, 10 μM, 24 h: key: '+' represents the degree of vacuolation; ++: more '+' indicates more obvious vacuolation; +++: more '+' indicates more obvious vacuolation; ++++: more '+' indicates more obvious vacuolation; '−' represents no vacuolation; on degree of vacuolation, 10 μM, 48 h: key: '+' represents the degree of vacuolation; ++: more '+' indicates more obvious vacuolation; +++: more '+' indicates more obvious vacuolation; ++++: more '+' indicates more obvious vacuolation; '−' represents no vacuolation
Summary of the method: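 MDA-MB-231 cells in 12-well plates at 37 °C, 5% CO2 were observed by microscopy after 24 and 48 h of culture for cytoplasmic vacuolation as a readout of PIKfyve inhibition. Scoring was semi-quantitative, from − (none) to increasing +.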

JeKo-1 cells [1] = test: Tumor cell growth inhibition by MTS method, JeKo-1; type: cell-based; conditions: Homo sapiens, JeKo-1, 120 h, 5 days of culture; for inhibition at 10 µM: read-out: cell growth inhibition rate of compounds at 10 μM
Method: III. Determination of IC50 Value of Compound for Inhibiting Tumor Cell Growth by MTS Method
1. Cell plating: cells in logarithmic growth phase were counted and inoculated in a 96-well plate (20000 cells per well).
2. Administrating agent to cell: 10 mM compound mother solution in DMSO was subjected to 3 fold-gradient dilution, to set 8 concentrations, which were then added to various wells, with three replicates for each concentration, and three blank wells (only culture medium) and three negative controls (containing 0.1% DMSO) on each plate.
3. […] The OD value at 490 nm was measured with microplate reader OD490. The cell growth inhibition rate was calculated by the following formula: Cell growth inhibition rate %=1−(ODexperimental group−ODblank group)/(ODnegative group−ODblank group)×100%
The semi-inhibitory concentration IC50 of the compound acting on cell growth was calculated using GradPad Prism 5 software according to the measured cell growth inhibition rate.
In the following table it lists the IC50 value or the inhibition rates of some compounds at 10 μM against JeKo-1 cells

JeKo-1 cells [2] = test: Lysosomal dysfunction caused by inhibition of PIKfyve, Western Blot of cathepsins in JeKo-1 cells; type: cell-based; conditions: treatment for 24 hr, FIG. 3
Text: V. Lysosomal Dysfunction Caused by Inhibition of Compound V-c-17 on PIKfyve (FIG. 3)
After treatment with V-c-17 for 24 hr, JeKo-1 cells were lysed and tested by Western Blot. […] This was similar to the treatment result with the known PIKfyve inhibitor apilimod.

| Kd (PIKfyve protein) | IC50 (JeKo-1 cells [1]) [nM] | SMILES | inhibition at 3.3 µM (Toledo cells) [%] | inhibition at 3.3 µM (ST486 cells) [%] | degree of vacuolation, 1 μM, 24 h (MDA-MB-231 cells) | degree of vacuolation, 1 μM, 48 h (MDA-MB-231 cells) | degree of vacuolation, 10 μM, 24 h (MDA-MB-231 cells) | degree of vacuolation, 10 μM, 48 h (MDA-MB-231 cells) | inhibition at 10 µM (JeKo-1 cells [1]) [%] | vacuolation of MDA-MB-231 cells (FIG. 1) (MDA-MB-231 cells; 1 μmol/L, time and concentration dependence) | immature cathepsin A and cathepsin D (Western Blot) (JeKo-1 cells [2]) |
| --- | --- | --- | --- | --- | --- | --- | --- | --- | --- | --- | --- |
| 16 nM | 4950 | Cc1ccc(C(=O)Nc2cccc(NS(C)(=O)=O)c2)cc1Nc1nc(-c2cccnc2)c2[nH]ccc2n1 [V-c-6] | 93.9 | 69.9 | + | ++ | +++ | +++ |  |  |  |
| 13 nM |  | Cc1ccc(C(=O)Nc2cccc(OC(F)(F)F)c2)cc1Nc1nc(-c2cccnc2)c2[nH]ccc2n1 [V-c-8] | 96.3 | 51 | +++ | +++ | +++ | +++ | 39 |  |  |
| 140 nM |  | Cc1ccc(NC(=O)Nc2cccc(C(F)(F)F)c2)cc1Nc1nc(-c2cccnc2)c2[nH]ccc2n1 [V-c-15] | 99.6 | 57.5 | ++ | ++ | ++ | ++ | 35.1 |  |  |
| 6.4 nM | 862 | O=C(Nc1cccc(Nc2nc(-c3cccnc3)c3[nH]ccc3n2)c1)c1cccc(C(F)(F)F)c1 [V-c-18] | 95.2 | 96 | +++ | +++ | +++ | +++ |  |  |  |
| 16 nM and 15 nM | 2090 | Cc1ccc(NC(=O)c2cccc(C(F)(F)F)c2)cc1Nc1nc(-c2cccnc2)c2[nH]ccc2n1 [V-c-19] | 97.3 | 70.6 | +++ | +++ | +++ | +++ |  | induces vacuolation of MDA-MB-231 cells, with good time dependence; also recorded: induces vacuolation of MDA-MB-231 cells, with good concentration dependence |  |
| 1000 nM | 9410 | Cc1ccc(NS(=O)(=O)c2cccc(C(F)(F)F)c2)cc1Nc1nc(-c2cccnc2)c2[nH]ccc2n1 [V-c-20] | 99.7 | 33.3 | − | ++ | − | ++ |  |  |  |
| 33 nM |  | Cc1ccc(NC(=O)c2ccc(C(F)(F)F)cc2)cc1Nc1nc(-c2cccnc2)c2[nH]ccc2n1 [V-c-23] | 94.9 | 27.2 | ++ | − | ++ | − | 15.8 |  |  |

Further lines, the molecule ahead of its results:

| SMILES | Kd (PIKfyve protein) | IC50 (JeKo-1 cells [1]) [nM] | inhibition at 3.3 µM (Toledo cells) [%] | inhibition at 3.3 µM (ST486 cells) [%] | degree of vacuolation, 1 μM, 24 h (MDA-MB-231 cells) | degree of vacuolation, 1 μM, 48 h (MDA-MB-231 cells) | degree of vacuolation, 10 μM, 24 h (MDA-MB-231 cells) | degree of vacuolation, 10 μM, 48 h (MDA-MB-231 cells) | inhibition at 10 µM (JeKo-1 cells [1]) [%] | vacuolation of MDA-MB-231 cells (FIG. 1) (MDA-MB-231 cells; 1 μmol/L, time and concentration dependence) | immature cathepsin A and cathepsin D (Western Blot) (JeKo-1 cells [2]) |
| --- | --- | --- | --- | --- | --- | --- | --- | --- | --- | --- | --- |
| c1cncc(-c2nc(Nc3cc(N4CCOCC4)cc(N4CCOCC4)c3)nc3cc[nH]c23)c1 [V-c-2] | 2000 nM |  | < 10 | 18 | − | − | − | − |  |  |  |
| O=C(Nc1cccc(C(F)(F)F)c1)c1cccc(Nc2nc(-c3cccnc3)c3[nH]ccc3n2)c1 [V-c-4] | 33 nM | 5940 | 99.5 | 76.2 | ++ | ++ | +++ | +++ |  |  |  |
| Cc1cn(-c2cc(NC(=O)c3ccc(C)c(Nc4nc(-c5cccnc5)c5[nH]ccc5n4)c3)cc(C(F)(F)F)c2)cn1 [V-c-10] | 3500 nM |  | 94.8 | 93 | − | − | ++ | ++ |  |  |  |
| Cc1ccc(C(=O)Nc2ccc(CN3CCN(C)CC3)c(C(F)(F)F)c2)cc1Nc1nc(-c2cccnc2)c2[nH]ccc2n1 [V-c-11] | 700 nM |  | 95.3 | 96.2 | − | − | − | − |  |  |  |
| COc1ccc(C(F)(F)F)cc1NC(=O)c1ccc(C)c(Nc2nc(-c3cccnc3)c3[nH]ccc3n2)c1 [V-c-12] | > 30000 nM | 2790 | 95.6 | 72.3 | +++ | +++ | +++ | +++ |  |  |  |
| Cc1ccc(C(=O)Nc2cc(C(F)(F)F)ccc2F)cc1Nc1nc(-c2cccnc2)c2[nH]ccc2n1 [V-c-13] | 16 nM |  | 99.7 | 85.2 | ++ | − | ++ | ++ | 34.3 |  |  |
| Cc1ccc(C(=O)Nc2cc(C(F)(F)F)ccc2Cl)cc1Nc1nc(-c2cccnc2)c2[nH]ccc2n1 [V-c-14] | 20 nM |  | 99.6 | 52.2 | ++ | − | ++ | ++ | 46.6 |  |  |
| Cc1ccc(NC(=S)Nc2cccc(C(F)(F)F)c2)cc1Nc1nc(-c2cccnc2)c2[nH]ccc2n1 [V-c-16] | 110 nM | 6220 | 99.5 | 60.3 | ++ | ++ | ++ | ++ |  |  |  |
| Cc1ccc(NC(=O)c2ccc(CN3CCN(C)CC3)c(C(F)(F)F)c2)cc1Nc1nc(-c2cccnc2)c2[nH]ccc2n1 [V-c-22] | 21000 nM | 1540 | 64.2 | 57.1 |  |  |  |  |  |  |  |
| Cc1ccc(NC(=O)c2cccc(C(F)(F)F)c2)cc1Nc1nc(-c2cccnc2)c2c(ccn2C)n1 [V-c-40] | 380 nM |  | 98.8 | 57.1 | + | +++ | + | +++ |  |  |  |
| Cc1cccc(/C=N/Nc2cc(N3CCOCC3)nc(OCCc3ccccn3)n2)c1 [apilimod, reference compound] |  |  |  |  |  |  |  |  |  |  | immature cathepsins A and D gradually increase, with good dose dependence |

From patent US11352354B2, “Substituted penta-fused hexa-heterocyclic compounds, preparation method therefor, drug combination and use thereof” (Xiamen University, priority 2017, dated 2022)
